Experimental data as given in article PMC7155171, “Probing the Open Global Health Chemical Diversity Library for Multistage-Active Starting Points for Next-Generation Antimalarials” (ACS Infectious Diseases, 2020).
Like-named read-outs stand apart in the source and are kept apart here.

Experiments:
[1] = system: P. berghei liver stage (PbLuc); experiment: P. berghei luciferase liver stage (PbLuc) assay in HepG2-A16-CD81 hepatocytes; format: cell-based, Plasmodium berghei; settings: 48 h liver stage, HepG2-A16-CD81; for IC50: Plasmodium berghei, HepG2-A16-CD81, 48 h, read-out: Pbluc (EEF) IC50
[2] = target: recombinant firefly luciferase (Photinus pyralis, UniProt P08659); experiment: biochemical; settings: read-out: rLuc IC50
recombinant firefly luciferase, sequence (P08659 whole entry): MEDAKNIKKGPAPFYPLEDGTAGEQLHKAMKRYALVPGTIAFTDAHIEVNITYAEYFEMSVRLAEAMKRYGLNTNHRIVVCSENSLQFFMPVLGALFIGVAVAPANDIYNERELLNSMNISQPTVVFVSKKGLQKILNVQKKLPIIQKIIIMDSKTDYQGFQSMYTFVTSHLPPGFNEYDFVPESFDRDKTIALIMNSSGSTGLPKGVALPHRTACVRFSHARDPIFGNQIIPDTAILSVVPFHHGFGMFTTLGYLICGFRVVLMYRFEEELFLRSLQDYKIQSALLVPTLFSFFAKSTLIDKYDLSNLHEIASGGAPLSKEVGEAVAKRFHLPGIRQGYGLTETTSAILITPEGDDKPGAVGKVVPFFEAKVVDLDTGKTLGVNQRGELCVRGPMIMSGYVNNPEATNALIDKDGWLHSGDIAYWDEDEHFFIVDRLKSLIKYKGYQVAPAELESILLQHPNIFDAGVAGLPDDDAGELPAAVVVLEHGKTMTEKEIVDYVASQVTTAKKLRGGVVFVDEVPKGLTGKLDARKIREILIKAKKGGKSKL

[3] = system: HepG2-A16-CD81 hepatocytes; experiment: HepG2 cytotoxicity screening (CellTiter-Glo); settings: HepG2-A16-CD81, read-out: HepG2 tox IC50
[4] = system: P. vivax patient isolates, exoerythrocytic forms (schizonts and hypnozoites); experiment: P. vivax liver stage assay in HC04 cells (immunofluorescence); settings: HC04 cells treated 24 h before sporozoites, nanomolar concentrations, counted day 7
[5] = system: P. falciparum Dd2 (PfLuc) line expressing firefly luciferase, asexual blood stage; experiment: microbe, parasite or virus in culture; format: cell-based, Plasmodium falciparum; settings: for IC50 / Emax: Plasmodium falciparum
P. falciparum Dd2 = experiment: SYBR green I asexual blood stage proliferation assay (96 h); format: cell-based, Plasmodium falciparum; settings: Plasmodium falciparum
[6] = system: P. falciparum asexual blood stage (wild-type and DDD01061024-resistant Dd2-B2 clones); experiment: Lactate dehydrogenase (LDH) asexual blood stage assay; format: cell-based, Plasmodium falciparum; settings: Plasmodium falciparum, DD2, read-out: LDH ABS assay IC50
From the text: Mutations within this site, and indeed at our V259L residue, were previously reported using other known cytochrome b inhibitors including ELQ400[49] and RYL-552.[50]
(§1) Figure S3. DDD01061024 is a cytochrome bc1 inhibitor.
The dual stage inhibitor, DDD01061024, is shown occupying the Q0 site (residues outlined in orange) of a Pf Cyt Bc1 homology model (from PDB: 1BE3) (a). A local V259L substitution (red) in mutant clones may destabilize the interactions within this pocket, helping resistant clones tolerate higher doses of the inhibitor (b). DDD01061024-resistannt mutants show cross-resistance to atovaquone (c), another multistage active antimalarial which targets the Q0 binding site. Dose dependent inhibition was determined using a metabolic endpoint (LDH) before normalizing to controls (n=2). Measuring the percentage of PbGFP infected hepatocytes using a high content imaging system validates the liver-stage potency of DDD01061024 in a fluorescence-based model (d). Infected hepatocytes were counted using luminescence-independent high content imaging in treated wells and normalized to controls over two replicates.
(1 picture or pasted object on this page, not shown here)

[7] = system: P. berghei-GFP (PbGFP) liver stage; experiment: P. berghei-GFP liver stage high content imaging in Huh7.5.1 hepatocytes; format: cell-based; settings: Plasmodium berghei, Huh-7.5.1, 48 h, read-out: liver stage high content imaging assay IC50
Description: For the fluorescent liver stage validation, roughly 2500 P. berghei-GFP (PbGFP) sporozoites[76] were dissected from mosquitoes provided by the NYU Insectary Core Facility and seeded onto a lawn of 5000 Huh7.5.1 hepatocytes in 384-well plates. These assay plates were pretreated with DDD01061024 in 8-point dose response (10–4.57 × 10^–3 μM), with atovaquone (0.5–3.91 × 10^–3 μM) and DMSO (0.5%) as positive and negative controls, respectively. Unlike our standard HepG2 cell line, these Huh7.5.1 cells lack GFP expression, making it preferable for these experiments. After a 48 h incubation in the presence of our test compounds, the presence of GFP positive infected cells were imaged and counted using the Operetta High-content Imaging System (PerkinElmer).
as §1
The dual stage inhibitor, DDD01061024, is shown occupying the Q0 site (residues outlined in orange) of a Pf Cyt Bc1 homology model (from PDB: 1BE3) (a). […] Dose dependent inhibition was determined using a metabolic endpoint (LDH) before normalizing to controls (n=2). Measuring the percentage of PbGFP infected hepatocytes using a high content imaging system validates the liver-stage potency of DDD01061024 in a fluorescence-based model (d). Infected hepatocytes were counted using luminescence-independent high content imaging in treated wells and normalized to controls over two replicates. […]

| Structure (SMILES) | IC50 [1] | IC50 [2] | IC50 [3] | P. vivax hypnozoites or schizonts after treatment [4] | IC50 ([5]; DD2, read-out: CDD P. falciparum Luciferase ABS 11-pt Reconfirmation Dose Response (48hr): IC50 (μM), 11-pt dose response, 48hr) | IC50 ([5]; DD2, 8-pt dose response, 96hr, read-out: CDD P. falciparum Luciferase ABS 8-pt Reconfirmation Dose Response (96hr): IC50) | Emax ([5]; DD2, 11-pt dose response, 48hr, read-out: CDD P. falciparum Luciferase ABS 11-pt Reconfirmation Dose Response (48hr): Maximum inhibition (%)) | IC50 ([5]; DD2, 11-pt dose response, 96hr, read-out: CDD P. falciparum Luciferase ABS 11-pt Reconfirmation Dose Response (96hr): IC50) | Emax ([5]; DD2, 11-pt dose response, 96hr, read-out: CDD P. falciparum Luciferase ABS 11-pt Reconfirmation Dose Response (96hr): Maximum inhibition (%)) | ABS IC50 ([5]; asexual blood stage, assay format not given) | Emax (P. falciparum Dd2; DD2, Sybr Green I, 11-pt dose response, 96hr, read-out: CDD P. falciparum Sybr Green I ABS 11-pt Reconfirmation Dose Response (96hr): Maximum inhibition (%)) | IC50 (P. falciparum Dd2; 96 h, Dd2, read-out: 96 h SYBR green ABS IC50) | Pbluc (EEF) IC50 [1] | IC50 [6] | IC50 [7] |
| --- | --- | --- | --- | --- | --- | --- | --- | --- | --- | --- | --- | --- | --- | --- | --- |
| CCc1c(C)nc(-n2nc(C3CC3)cc2NC(C)=O)[nH]c1=O [DDD01027733] | 96 nM | > 50000 nM | > 25000 nM | no detectable hypnozoites or schizonts | – | – | – | – | – | – | – | – | – | – | – |
| Cc1ccc(-c2ccc(C3CNCCO3)nc2)cc1 (stereo not drawn) [DDD01061024] | < 0.141 nM | 3.2 nM | > 50000 nM | – | 0.533 µM | 0.2 µM | 99.6% | 0.574 µM | 99.5% | submicromolar | 98.9% | 344 nM | submicromolar | 521 nM | 375 nM |
